{"source": "paper PMC7154053", "about": "“Chemical, Metabolic, and Cellular Characterization of a FtsZ Inhibitor Effective Against Burkholderia cenocepacia” (Frontiers in Microbiology, 2020)", "key": {"B. cenocepacia J2315": {"test_system": "B. cenocepacia J2315", "test": "Time-lapse microscopy, single-cell analysis in microfluidic device", "assay_type": "cell-based, Burkholderia cenocepacia", "method": "B. cenocepacia J2315 was cultured over-night in Middlebrook 7H9 broth, supplemented with 10% (v/v) DS enrichment (20 g dextrose, 8.5 g sodium chloride in 1 L water) and 5% (v/v) of a casamino acids solution (10 g casamino acids in 100 ml water). Cells were diluted 10-fold in the same fresh 7H9 medium, and 5 μl of the diluted cell suspension were inoculated into a custom-made microfluidic hexa-device, as previously described (Manina et al., [2019]). Silicone tubing (0.76 mm ID) was connected to each inlet and outlet ports of the hexa-device to enable medium circulation. Two 50 ml syringes were connected to the inlet tubing, and prewarmed 7H9 medium was pumped through the microfluidic device at 15 μl/min. The outlet tubing were inserted into a waste receptacle containing bleach. […] Bacteria were imaged in phase contrast, using a UPLFLN100XO2/PH3/1.30 objective (Olympus) and a high-speed sCMOS camera, with the help of an automated epifluorescence inverted microscope (DeltaVision Elite, GE Healthcare). The microscope was equipped with an environmental chamber maintained at 37°C. Images were recorded at 20-min intervals and up to 46 h. Exposure conditions were as follows: phase 50% T, 150 ms. In each experiment, 190 XY fields were imaged. The same experimental set-up was carried out twice.\nManual segmentation of individual cells and analysis of image stacks were performed using the ImageJ 1.52a software. The Selection Brush Tools was used to draw polygons corresponding to the shape of individual cells and to extract the cell planar area (μm^2). Measurements of the cell area were repeated throughout the generation time of individual cells, to calculate the growth rate by fitting an exponential curve.\nBiphasic killing represents the typical pattern of drug persistence, whereby the initial linear mortality of the population is followed by a second phase where a subpopulation of cells is able to endure inhibitory drug concentrations in the absence of genetic mutations (Van den Bergh et al., [2017]). In contrast to drug-resistant cells, which continue to replicate in the presence of the drug, drug-persistent cells either derive from pre-existing non-growing cells or slow down their growth during drug exposure, and their progeny is killed with kinetics similar to that of the initial population (Van den Bergh et al., [2017]; Balaban et al., [2019]). […] To examine the C109 killing dynamics of B. cenocepacia at the single-cell level, we carried out a time-lapse microscopy experiment, divided into several steps. Wild type B. cenocepacia J2315 cells were first seeded into a microfluidic device (Manina et al., [2019]), and perfused with prewarmed 7H9 medium for 3 h, to allow the cells to adapt to the microfluidic environment. […] Cells were then perfused with C109-free 7H9 medium for 12 h, enabling the recovery and expansion of surviving cells. […] During the time-lapse imaging, cells were monitored every 20 min for a total of 46 h. The total number of cells, the single-cell area, and the number of division and lysis events were measured during each step of the experiment."}, "S. aureus ATCC 25923": {"test_system": "S. aureus ATCC 25923", "test": "MIC, 2-fold microdilution, resazurin method", "assay_type": "cell-based, Staphylococcus aureus", "conditions": "Staphylococcus aureus, ATCC25923", "method": "Burkholderia cenocepacia strains, Escherichia coli ATCC 25922, Pseudomonas aeruginosa PAO1, and Staphylococcus aureus ATCC 25923 were grown in Luria-Bertani (LB) medium (Difco), if not differently specified, with shaking at 200 rpm, or on LB agar, at 37°C.\n(§1) The microtiter plates were incubated at 37°C for 48 (for B. cenocepacia) or 24 h (for all the other strains) and growth was determined by the resazurin method (Martin et al., [2006]). A solution of resazurin sodium salt (Sigma Aldrich) was prepared at 0.01% in distilled water and filter-sterilized. Thirty microliter of resazurin solution were added to each well after 1 or 2 days of incubation at 37°C, and the microtiters were re-incubated at the same temperature for 4 h. The MIC was defined as the lowest concentration of the drug that prevented a change in color from blue to pink, which indicates bacterial growth.\nThree independent biological replicates were used for each MIC determination."}, "B. cenocepacia": {"test_system": "B. cenocepacia", "test": "Resazurin-based assay of BcNR reaction mixtures", "assay_type": "cell-based, Burkholderia cenocepacia", "conditions": "BcNR reactions with 1 mM C109, with or without NADPH; C109 result: in the absence of NADPH", "from_the_text": "To assess whether the resulting BcNR reduction product could inhibit B. cenocepacia growth, we carried out a resazurin-based assay."}, "[1]": {"test_system": "CF bronchial epithelial (CFBE41o-) cell line", "set-up": "method as in Hogan et al., 2018; Costabile et al., 2020", "conditions": "CFBE41o- cells; ref Hogan et al., 2018; Costabile et al., 2020; cited from earlier work"}, "B. cenocepacia FCF22": {"test_system": "B. cenocepacia FCF22", "test": "Checkerboard assay with efflux pump inhibitor PaβN MC-207.110", "assay_type": "cell-based, Burkholderia cenocepacia", "conditions": "Burkholderia cenocepacia, FCF22; read-out: MIC in the presence of MC-207.110, FCF22", "method": "as §1, with “growth. […] Three independent biological replicates were used for each MIC determination.” for “growth.”"}, "B. cenocepacia FCF19": {"test_system": "B. cenocepacia FCF19", "test": "Checkerboard assay with efflux pump inhibitor PaβN MC-207.110", "assay_type": "cell-based, Burkholderia cenocepacia", "conditions": "Burkholderia cenocepacia, FCF19; read-out: MIC in the presence of MC-207.110, FCF19", "method": "as §1, with “growth. […] Three independent biological replicates were used for each MIC determination.” for “growth.”"}}, "note": "Like-named read-outs stand apart in the source and are kept apart here."}
{"smiles": "COC(=O)CSc1ccc2nsnc2c1[N+](=O)[O-]", "note": "[C109, methyl [(4-nitro-2,1,3-benzothiadiazol-5-yl)thio]acetate]", "values": [{"measurement": "elongated cells that resumed normal growth during washout (possible persistent cells)", "setting": "B. cenocepacia J2315; 8 of 3,000 elongated cells formed during first exposure", "value": 0.27, "unit": "%"}, {"measurement": "cells died from lysis, first treatment", "setting": "B. cenocepacia J2315; C109 100 μg/ml (12.5X-MIC), 4 h", "value": 70, "unit": "%"}, {"measurement": "cells still able to grow with considerable filamentation, first treatment", "setting": "B. cenocepacia J2315; C109 12.5X-MIC, 4 h", "value": 3.5, "unit": "%"}, {"measurement": "cells that stopped to divide (sensitive), second treatment", "setting": "B. cenocepacia J2315; C109 12.5X-MIC, 24 h", "value": 94, "unit": "%"}, {"measurement": "decline in cell population, second treatment", "setting": "B. cenocepacia J2315; C109 12.5X-MIC, 24 h", "value": 92, "unit": "%"}, {"measurement": "cells with elongated phenotype, second treatment", "setting": "B. cenocepacia J2315; C109 12.5X-MIC, 24 h, of the total cell number", "value": "~6", "unit": "%"}, {"measurement": "filamentous cells that started again to divide during washout", "setting": "B. cenocepacia J2315; C109 washout with fresh medium", "value": 30, "unit": "%"}, {"measurement": "increase of cell area, cells dying by lysis", "setting": "B. cenocepacia J2315; first treatment", "value": 2, "unit": "fold"}, {"measurement": "increase of cell area, filamentous cells", "setting": "B. cenocepacia J2315; first treatment", "value": "up to 5 fold"}, {"measurement": "increase of cell area, elongated cells", "setting": "B. cenocepacia J2315; second treatment, 8–10 μm^2", "value": "up to 10 fold"}, {"measurement": "MIC", "setting": "S. aureus ATCC 25923; LB, 24 h, read-out: MIC S. aureus 25923", "value": 4, "unit": "µg/mL"}, {"measurement": "MIC", "setting": "S. aureus ATCC 25923; Supplementary Table 1, read-out: MIC (µg/ml) S. aureus 25923", "value": 4, "unit": "µg/mL"}, {"measurement": "activity against B. cenocepacia growth", "setting": "B. cenocepacia", "value": "still active"}, {"measurement": "toxic concentration at 50% (TC50)", "setting": "[1]", "value": "about 75 μM"}, {"measurement": "MIC", "setting": "B. cenocepacia FCF22", "value": 16, "unit": "µg/mL"}, {"measurement": "MIC", "setting": "B. cenocepacia FCF19", "value": 8, "unit": "µg/mL"}]}
